From patent US20230416202A1, “Small Molecule Compounds and Compositions” (Telo Therapeutics, Inc., priority 2020, published 2023)
Read-outs that look alike come from different tables or passages of the source.

Experiments:
Type in all cases: cell-based, human
Mutant TERT = test: HepG2 hTERT mRNA assay (qPCR); details: Homo sapiens; HepG2 cells (mutated TERT), 48 hours, TERT mRNA via qPCR
Method: (§1) HepG2 cells (hepatocyte carcinoma (HCC) cells; with mutated TERT) or HEK293T cells (with wild type (wt) TERT) were seeded at 4,000 cells/well in 96-well plates. The following day, test compounds were added to cells for at concentrations of 25 uM, 12.5 uM, 6.25 uM, 3.125 uM, 1.563 uM, 0.781 uM, 0.391 uM, 0.195 uM, 0.098 uM or vehicle control (0.1% DMSO). Each condition was tested in three replicate wells. 48 hours post drug addition, the cells were harvested for RNA using the 96-Magmax RNA Isolation kit (Cat. No. AM1830). RNA was converted to cDNA using the Superscript III First strand cDNA synthesis kit (Cat. No. 18080051). RNA and cDNA concentration and quality were determined using the NanoQuant nucleic acid quantification method. 500 ng cDNA from each sample was used to detect TERT mRNA via qPCR. GUSB was also measured as an internal control and fold change to vehicle control was determined using the delta CT method.

wt TERT = test: HEK293T hTERT mRNA assay (qPCR)
Method: as §1

HepG2 cells = test: HepG2 cytostatic
HEK293 cells = test: HEK293 cytostatic; details: for IC50: read-out: wt Tert IC50 uM HEK293 cytostatic
[1] = Homo sapiens, HEK-293T, wild type TERT, read-out: wt TERT IC50
[2] = Homo sapiens, HEK293 cells (wt TERT), 48 hours, class symbols, read-out: wt TERT IC50 uM HEK293
[3] = Homo sapiens, HEK293, HEK293 cells

`COc1cc(CN2C[C@H](CC(=O)O)C[C@@H](c3ccc(C(F)(F)F)cc3)C2)cc(C(F)(F)F)c1` [Compound 108, 2-((3S,5S)-1-(3-methoxy-5-(trifluoromethyl)benzyl)-5-(4-(trifluoromethyl)phenyl)piperidin-3-yl)acetic acid] showed an IC50 (Mutant TERT) of over 25 µM, an IC50 (wt TERT; [1]) of over 25 µM and an IC50 (wt TERT; [2]) of over 25 µM. For the same compound, the IC50 (HepG2 cells; Homo sapiens) was over 25 µM.

`COc1ccc([C@H]2C[C@H](CC(=O)O)CN(Cc3ccc(C(F)(F)F)cc3)C2)cc1` (racemic) [Compound 105, 2-((anti)-5-(4-methoxyphenyl)-1-(4-(trifluoromethyl)benzyl)piperidin-3-yl)acetic acid] was tested, and the IC50 (Mutant TERT) was 0.5 to 5 µM, the IC50 (wt TERT; [1]) was over 25 µM and the IC50 (wt TERT; [2]) was over 25 µM. It also gave an IC50 (HepG2 cells; Homo sapiens) of 5 to 25 µM and an IC50 (HEK293 cells; [3]) of 5 to 25 µM.

`O=C(O)CC1CC(c2ccc(C(F)(F)F)cc2)CN(Cc2ccc(C(F)(F)F)cc2)C1` (racemic) [Compound 100, rac-2-((anti)-1-(4-(trifluoromethyl)benzyl)-5-(4-(trifluoromethyl)phenyl)piperidin-3-yl)acetic acid] gave an IC50 (Mutant TERT) of 0.5 to 5 µM, an IC50 (wt TERT; [1]) of over 25 µM and an IC50 (wt TERT; [2]) of over 25 µM. For the same compound, the “Cytostatic IC50 uM HepG2 cytostatic” value (HepG2 cells) was ““++”-“+”” and the “wt Tert IC50 uM HEK293 cytostatic” value (HEK293 cells; HEK293 cells) was ““++”-“+””.

Work on `COc1cccc([C@H]2C[C@H](CC(=O)O)CN(Cc3ccc(C(F)(F)F)cc3)C2)c1` (racemic) [Compound 103, 2-((anti)-5-(3-methoxyphenyl)-1-(4-(trifluoromethyl)benzyl)piperidin-3-yl)acetic acid] yielded an IC50 (Mutant TERT) of over 25 µM, an IC50 (wt TERT; [1]) of over 25 µM and an IC50 (wt TERT; [2]) of over 25 µM. It also gave an IC50 (HepG2 cells; Homo sapiens) of 5 to 25 µM and an IC50 (HEK293 cells; [3]) of 5 to 25 µM.

Work on `N#Cc1ccc([C@@H]2C[C@@H](CC(=O)O)CN(Cc3ccc(C(F)(F)F)cc3)C2)cc1` (racemic) [Compound 107, 2-((anti)-5-(4-cyanophenyl)-1-(4-(trifluoromethyl)benzyl)piperidin-3-yl)acetic acid] yielded an IC50 (Mutant TERT) of 5 to 25 µM, an IC50 (wt TERT; [1]) of over 25 µM and an IC50 (wt TERT; [2]) of over 25 µM. The IC50 (HepG2 cells; Homo sapiens) was 5 to 25 µM and the IC50 (HEK293 cells; [3]) was over 25 µM.

With `C#Cc1ccc(CN2C[C@H](CC(=O)O)C[C@@H](c3ccc(C(F)(F)F)cc3)C2)cc1` [Compound 112, 2-((3S,5S)-1-(4-ethynylbenzyl)-5-(4-(trifluoromethyl)phenyl)piperidin-3-yl)acetic acid] the IC50 (Mutant TERT) was under 0.5 µM, the IC50 (wt TERT; [1]) was over 25 µM and the IC50 (wt TERT; [2]) was over 25 µM. For the same compound, the IC50 (HepG2 cells; Homo sapiens) was 0.5 to 5 µM and the IC50 (HEK293 cells; [3]) was over 25 µM.

`CC(C(=O)O)[C@@H]1C[C@@H](c2ccc(C(F)(F)F)cc2)CN(Cc2ccc(C(F)(F)F)cc2)C1` (single isomer, unassigned) [Compound 113] was tested, and the IC50 (Mutant TERT) was 0.5 to 5 µM, the IC50 (wt TERT; [1]) was over 25 µM and the IC50 (wt TERT; [2]) was over 25 µM. For the same compound, the IC50 (HepG2 cells; Homo sapiens) was 0.5 to 5 µM and the IC50 (HEK293 cells; HEK293 cells) was 5 to 25 µM.

Work on `COc1ccc(CN2C[C@H](CC(=O)O)C[C@@H](c3ccc(C(F)(F)F)cc3)C2)cc1` [Compound 109] yielded an IC50 (Mutant TERT) of over 25 µM, an IC50 (wt TERT; [1]) of over 25 µM and an IC50 (wt TERT; [2]) of over 25 µM. It also gave an IC50 (HepG2 cells; Homo sapiens) of 0.5 to 5 µM and an IC50 (HEK293 cells; [3]) of 5 to 25 µM.

`O=C(O)C[C@H]1C[C@H](c2ccc(C(F)(F)F)cc2)CN(Cc2ccc(C(F)(F)F)cc2)C1` [Compound 102, 2-((3R,5R)-1-(4-(trifluoromethyl)benzyl)-5-(4-(trifluoromethyl)phenyl)piperidin-3-yl)acetic acid] gave an IC50 (Mutant TERT) of 5 to 25 µM, an IC50 (wt TERT; [1]) of over 25 µM and an IC50 (wt TERT; [2]) of over 25 µM. The IC50 (HepG2 cells; Homo sapiens) was 5 to 25 µM and the IC50 (HEK293 cells; [3]) was 5 to 25 µM.

`COc1cc([C@H]2C[C@H](CC(=O)O)CN(Cc3ccc(C(F)(F)F)cc3)C2)cc(C(F)(F)F)c1` (racemic) [Compound 106, rac-2-((anti)-5-(3-methoxy-5-(trifluoromethyl)phenyl)-1-(4-(trifluoromethyl)benzyl)piperidin-3-yl)acetic acid] was tested, and the IC50 (Mutant TERT) was 0.5 to 5 µM, the IC50 (wt TERT; [1]) was over 25 µM and the IC50 (wt TERT; [2]) was over 25 µM. It also gave an IC50 (HepG2 cells; Homo sapiens) of 0.5 to 5 µM and an IC50 (HEK293 cells; [3]) of 5 to 25 µM.

`O=C(O)C[C@H]1C[C@H](c2cccc(C(F)(F)F)c2)CN(Cc2ccc(C(F)(F)F)cc2)C1` (racemic) [Compound 104, rac-2-((anti)-1-(4-(trifluoromethyl)benzyl)-5-(3-(trifluoromethyl)phenyl)piperidin-3-yl)acetic acid] was tested, and the IC50 (wt TERT; [1]) was over 25 µM, the IC50 (wt TERT; [2]) was over 25 µM and the IC50 (HepG2 cells; Homo sapiens) was 5 to 25 µM. The IC50 (HEK293 cells; [3]) was 5 to 25 µM.

Work on `N#Cc1ccc(CN2C[C@H](CC(=O)O)C[C@@H](c3ccc(C(F)(F)F)cc3)C2)cc1` [Compound 115, 2-((3S,5S)-1-(4-cyanobenzyl)-5-(4-(trifluoromethyl)phenyl)piperidin-3-yl)acetic acid] yielded an IC50 (Mutant TERT) of 0.5 to 5 µM, an IC50 (wt TERT; [1]) of over 25 µM and an IC50 (wt TERT; [2]) of over 25 µM. The IC50 (HepG2 cells; Homo sapiens) was 0.5 to 5 µM and the IC50 (HEK293 cells; [3]) was 5 to 25 µM.

`CC(C(=O)O)[C@@H]1C[C@@H](c2ccc(C(F)(F)F)cc2)CN(Cc2ccc(C(F)(F)F)cc2)C1` (single isomer, unassigned) [Compound 114] showed an IC50 (wt TERT; HEK293 cells (wt TERT), 48 hours, class symbols, read-out: wt TERT IC50 uM HEK293) of over 25 µM, an IC50 (wt TERT; wild type TERT, read-out: wt TERT IC50) of over 25 µM and an IC50 (HepG2 cells) of 0.5 to 5 µM. For the same compound, the IC50 (HEK293 cells; HEK293 cells) was 0.5 to 5 µM.
